Test results as given in US5985281A, “Chemical compounds” (Zeneca Limited, priority 1994, dated 1999).
Residue numbers refer to the chain shown, from its start. Names and notes keep the numbering of the source. Where two headings read alike, the source gives them in different places. Residues, ends and D or L forms follow the SMILES beside them.

Key:
[1] = tested on: Lys66Glu BP-RNase; assay: Enzyme kinetics of prodrug analogues with mutant Lys66Glu bovine RNase; details: 25° C.
[2] = tested on: Lys66Glu BP-RNase; format: biochemical, bovine; details: for kcat/Km: pH 7.5
[3] = tested on: HP-RNase; format: biochemical, human; details: pH 7
[4] = tested on: Arg4Ala,Lys6Ala,Lys66Glu HP-RNase; format: biochemical, human; details: for kcat/Km: pH 7
[5] = biological target: T1, BP-RNase (Bos taurus, UniProt P61823); assay: Enzyme kinetics of RNase prodrug versus native bovine pancreatic RNase; format: biochemical; details: 37° C., pH 7.5
T1 sequence (P61823 27-150): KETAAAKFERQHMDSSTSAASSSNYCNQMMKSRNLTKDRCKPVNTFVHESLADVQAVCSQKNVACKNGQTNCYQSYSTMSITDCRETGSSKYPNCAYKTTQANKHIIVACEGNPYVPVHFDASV

[6] = tested on: LoVo colorectal tumour cells
[7] = tested on: LoVo tumour; assay: Anti-tumour activity in LoVo xenografted mice; format: in vivo, athymic nude mice; details: conjugate 10-100 mg/kg iv, then prodrug 100-1000 mg/kg iv or ip; vs untreated, conjugate or prodrug alone
Protocol: LoVo tumour cells (10^7) are injected subcutaneously into athymic nude mice. When the tumours are 4-5 mm in diameter the conjugate is administered iv at doses between 10-100 mg/kg. Following localisation of the conjugate to the tumours and allowing a suitable time interval for residual conjugate to clear from the bloodstream and normal tissues (1-4 days) the prodrug is administered either iv or ip to the mice in dose ranging between 100-1000 mg/kg.

[8] = tested on: D253K mutant HCPB; assay: Determination of Km and kcat of D253K mutant HCPB with Hipp-Asp and Hipp-Glu; format: biochemical, human; details: for Km / kcat / kcat/Km: pH 7.5, 37° C.
[9] = HCPB activity of COS cell supernatants against Hipp-Arg; format: biochemical; details: COS-7 supernatant (250 μl), 5 h assay
[10] = Conversion of Hipp-Glu to hippuric acid by mutant and native human CPB (HPLC); format: biochemical; details: 0.5 mM Hipp-Glu, 4 μg enzyme, 5 h, 37° C., pH 7.5
[11] = Conversion of Hipp-Asp to hippuric acid by mutant and native human CPB (HPLC); format: biochemical; details: 0.5 mM Hipp-Asp, 4 μg enzyme, 5 h, 37° C., pH 7.5
[12] = Conversion of Hipp-Arg to hippuric acid by mutant and native human CPB (HPLC); format: biochemical; details: 4 μg enzyme, 5 h, 37° C., pH 7.5
[13] = Enzymic activity of recombinant HCPB against Hipp-Arg (spectrophotometric); format: biochemical; details: Tris HCl pH 7.5
Protocol: Purified human CPB, produced as described in Reference Example 20, was assayed for its ability to convert hippuryl-L-arginine (Hipp-Arg) to hippuric acid using a spectrophotometric assay.
Km and Vmax values were calculated using the ENZFITTER™ software programme (Biosoft™, Perkin Elmer). Kcat was calculated form Vmax by dividing by the enzyme concentration in the reaction mixture.

[14] = biological target: C > p; assay: Kinetic characterisation of RNase enzymes with C>p as substrate at pH 7.0; format: biochemical; details: CpA and C>p as substrates
Protocol: The kinetic characterisation was carried out using CpA and C>p as substrates (FIG. 16). The kinetic parameters Km, kcat, and kcat/Km were compared with the values obtained for commercial and recombinant bovine pancreatic RNase under the same assay conditions (see Tables).
Kinetic parameters of the different enzymes for C > p as […]

[15] = tested on: C>p; assay: RNase activity of recombinant and Lys66Glu bovine RNase on hydrolysis of C>p (and CpA); format: biochemical

Molecule: Nc1ccn([C@@H]2O[C@H](CO)[C@H]3OP(=O)(O)O[C@H]32)c(=O)n1 [C > p, cytidine-2',3'-cyclic monophosphate, reference compound]
- kcat/Km [1]: 3.0 mM⁻¹ s⁻¹
- kcat/Km [2]: 3.0
- kcat/Km [3]: 1.2
- kcat/Km [4]: 1.2

Molecule: NCC(=O)NC[C@H]1O[C@@H](n2ccc(=O)[nH]c2=O)[C@H](O)[C@@H]1OP(=O)(O)Oc1ccc(N(CCCl)CCCl)cc1 [Example 3, O-[(2R,3S,4R,5R)-2-(2-aminoacetamidomethyl)-5-(2,4-dioxo-1,2,3,4-tetrahydropyrimidin-1-yl)-4-hydroxy-2,3,4,5-tetrahydrofuran-3-yl]O-[4-(bis[2-chloroethyl]amino)phenyl] hydrogen phosphate]
- kcat/Km [5]: 370 M⁻¹ s⁻¹
- rate of hydrolysis compared with native enzyme [2]: much faster than the native enzyme
- kcat/Km [2]: 18
- kcat/Km [3]: 0.2
- rate of hydrolysis compared with native enzyme [4]: much faster than the native enzyme
- kcat/Km [4]: 3.6
- cytotoxicity of prodrug with A5B7 F(ab')2-Arg4Ala,Lys6Ala,Lys66Glu HP-RNase conjugate [6]: comparable to that of the active drug
- cytotoxicity of prodrug with free Arg4Ala,Lys6Ala,Lys66Glu HP-RNase [6]: comparable to that of the active drug
- fold less cytotoxic than the drug ([6]; human): approximately 30 fold
- IC50 ([6]; read-out: IC50 (inhibition of cell growth by 50%)): ~30 µM
- tumour growth with combination of conjugate and prodrug [7]: significantly slower

Molecule: O=C(O)C[C@H](NC(=O)CNC(=O)c1ccccc1)C(=O)O [Hipp-Asp, hippuryl-L-aspartic acid] (HELM PEPTIDE1{[O=C(c1ccccc1)[*:2]].G.D}$$$$V2.0)
- Km [8]: 2.7 mM
- kcat [8]: 0.26 s⁻¹
- kcat/Km [8]: 100 M⁻¹ s⁻¹

Molecule: O=C(O)CC[C@H](NC(=O)CNC(=O)c1ccccc1)C(=O)O [Hipp-Glu, hippuryl-L-glutamic acid] (HELM PEPTIDE1{[O=C(c1ccccc1)[*:2]].G.E}$$$$V2.0)
- kcat/Km compared to the Hipp-Asp substrate ([8]; Hipp-Glu vs Hipp-Asp): approximately 7 fold
- Km [8]: 5.3 mM
- kcat [8]: 3.8 s⁻¹
- kcat/Km [8]: 700 M⁻¹ s⁻¹

Molecule: CCCN(CCC)c1ccc(OP(=O)(O)O[C@H]2[C@@H](O)[C@H](n3ccc(=O)[nH]c3=O)O[C@@H]2CNC(=O)CN)cc1 [Reference Example 6]
- kcat/Km [1]: 25(6) mM^-1 s^-1

Molecule: CCCN(CCC)c1ccc(OP(=O)(O)O[C@H]2[C@@H](O)[C@H](n3ccc(N)nc3=O)O[C@@H]2CNC(=O)CN)cc1 [Reference Example 7]
- kcat/Km [1]: 109(11) mM^-1 s^-1

B1: proHCPB: pro form of human pancreatic carboxypeptidase B expressed from COS cells (protein, UniProt P15086 16-417, looked up)
pro-form: HHGGEHFEGEKVFRVNVEDENHINIIRELASTTQIDFWKPDSVTQIKPHSTVDFRVKAEDTVTVENVLKQNELQYKVLISNLRNVVEAQFDSRVRATGHSYEKYNKWETIEAWTQQVATENPALISRSVIGTTFEGRAIYLLKVGKAGQNKPAIFMDCGFHAREWISPAFCQWFVREAVRTYGREIQVTELLDKLDFYVLPVLNIDGYIYTWTKSRFWRKTRSTHTGSSCIGTDPNRNFDAGWCEIGASRNPCDETYCGPAAESEKETKALADFIRNKLSSIKAYLTIHSYSQMMIYPYSYAYKLGENNAELNALAKATVKELASLHGTKYTYGPGATTIYPAAGGSDDWAYDQGIRYSFTFELRDTGRYGFLLPESQIRATCEETFLAIKYVASYVLEHLY
modifications: pro-form
notes: pro form of human pancreatic carboxypeptidase B expressed from COS cells
- hydrolysis of Hipp-Arg substrate after activation with trypsin ([9]; trypsin 700 μg/ml, LIPOFECTIN-only control 30%): complete hydrolysis

B2: Native CPB: native human pancreatic carboxypeptidase B, recombinant (protein, UniProt P15086 111-417, looked up)
Carboxypeptidase B: ATGHSYEKYNKWETIEAWTQQVATENPALISRSVIGTTFEGRAIYLLKVGKAGQNKPAIFMDCGFHAREWISPAFCQWFVREAVRTYGREIQVTELLDKLDFYVLPVLNIDGYIYTWTKSRFWRKTRSTHTGSSCIGTDPNRNFDAGWCEIGASRNPCDETYCGPAAESEKETKALADFIRNKLSSIKAYLTIHSYSQMMIYPYSYAYKLGENNAELNALAKATVKELASLHGTKYTYGPGATTIYPAAGGSDDWAYDQGIRYSFTFELRDTGRYGFLLPESQIRATCEETFLAIKYVASYVLEHLY
- % conversion to Hippuric acid, Hipp-Glu [10]: 0%
- % conversion to Hippuric acid, Hipp-Asp [11]: 0%
- hydrolysis of Hipp-Arg substrate ([9]; LIPOFECTIN-only control 1.2%): 61%
- % conversion to Hippuric acid, Hipp-Arg [12]: 100%
- kcat [13]: 65 s⁻¹

B3: Rec. HP-RNase R4A:K6A: recombinant Arg4Ala,Lys6Ala human pancreatic ribonuclease (protein, UniProt P07998 29-156, looked up, variant R4A K6A)
Ribonuclease pancreatic: KESAAAKFQRQHMDSDSSPSSSSTYCNQMMRRRNMTQGRCKPVNTFVHEPLVDVQNVCFQEKVTCKNGQGNCYKSNSSMHITDCRLTNGSRYPNCAYRTSPKERHIIVACEGSPYVPVHFDASVEDST
- kinetic properties compared with homologous bovine counterpart [14]: not significantly different

B4: Rec. BP-RNase: recombinant bovine pancreatic ribonuclease (protein, UniProt P61823 27-150, looked up)
Ribonuclease pancreatic: T1 sequence (P61823 27-150)
- specific activity compared with the commercial enzyme ([15]; hydrolysis of CpA and C>p): equal specific activity to that of the commercial enzyme

B5: Lys66Glu BP-RNase: bovine Lys66Glu pancreatic ribonuclease (protein, UniProt P61823 27-150, looked up, variant K66E)
Ribonuclease pancreatic: T1 sequence (P61823 27-150) with K66E
- kinetic properties compared with commercial bovine enzyme ([15]; C>p hydrolysis, pH 7.0): not significantly different to the commercial bovine enzyme
